Measurements: patent US8673914B2, “Use of phosphodiesterase inhibitors for treating multidrug resistance” (St. John's University, priority 2011, dated 2014)

Experiments:
[1] = tested on: ABCB1 expression in KB-C2 cells; assay: Western blot and immunofluorescence of ABCB1; format: cell-based, human; conditions: for protein level of ABCB1 (Western blot): 10 μM, 36 and 72 h; for expression of ABCB1 in the membrane (immunofluorescence): 72 h
Method: Following incubation, the cells were harvested and rinsed twice with ice-cold PBS, and total cell lysates were collected with cell lysis buffer (1×PBS, 1% Nonidet P-40, 0.5% sodium deoxycholate, 0.1% SDS, 100 μg/ml phenylmethylsulfonyl fluoride, 10 μg/ml aprotinin, 10 μg/ml leupeptin) for 30 min with gentle rocking, and clarified by centrifugation at 12,000 rpm for 10 min at 4° C. Equal amounts (100 μg of protein) of cell lysates were resolved by sodium dodecyl sulfate polyacrylamide gel electrophoresis (SDS-PAGE) and electrophoretically transferred onto polyvinylidene fluoride (PVDF) membranes. After incubation in a blocking solution containing 5% nonfat milk in TBST buffer (10 mM Tris-HCL (pH 8.0), 150 mM NaCl, and 0.1% Tween 20) for 1 h at room temperature, membranes were immunoblotted overnight with primary monoclonal antibodies C219 (1:200) against ABCB1, or 14C10 (1:200) against GAPDH, at 4° C. Subsequently, the membranes were washed three times for 15 min with TBST buffer and incubated at room temperature for 2 h with HRP-conjugated secondary antibody at 1:1000 dilutions. The membranes underwent three additional washes for 15 min with TBST buffer and the protein-antibody complexes were visualized by the enhanced PHOTOTOPE® HRP Detection Kit (Cell Signaling Technology, Inc.) and exposed to Kodak medical X-ray processor (Eastman Kodak Co., Rochester, N.Y.). […] Propidium iodide was used for nuclear staining.

KB-C2 cells (ABCB1) = assay: [^3H]-paclitaxel efflux (Example 1); format: cell-based, human; conditions: 1 h
Method: The intracellular accumulation of [^3H]-paclitaxel was measured as follows. […] Intracellular paclitaxel accumulation was measured by incubating cells with 0.1 μM [^3H]-paclitaxel for 2 h in the presence or absence of the reversal agents at 37° C. The cells were washed three times with ice-cold PBS, then suspended in fresh medium with or without reversal agents at 37° C. Aliquots of the extracellular medium (40 μl) were collected at various time points (0, 60, 120 min), and finally the cells were collected and lysed in 10 mM lysis buffer (pH 7.4, containing 1% Triton X-100 and 0.2% SDS). Each sample was placed in scintillation fluid and the radioactivity was measured in a Packard TRI-CARB1 1900CA liquid scintillation analyzer from Packard Instrument Company, Inc. (Downers Grove, Ill.).

ABCB1 [2] = molecular target: T1, ABCB1 (Homo sapiens, UniProt P08183); assay: Photoaffinity labeling with [^125I]-IAAP (Example 1); format: binding; conditions: for IC50: ABCB1 membrane vesicles
T1 construct: made in house; host or cells: High Five insect cells (membrane vesicles / crude membranes)
Method: The photoaffinity labeling of ABCB1 with [^125I]-IAAP was performed as described in Sauna et al. (2000) Proc. Natl. Acad. Sci. USA 97:2515-20. The membrane vesicles from High Five™ insect cells expressing ABCB1 (50 μg of protein) were incubated at room temperature with different concentrations of drugs in the ATPase assay buffer with [^125I]-IAAP (7 nM) for 5 min under subdued light. […] Subsequently, the samples were run in a 7% Tris-acetate NuPAGE gel on SDS-PAGE; and the gels were dried and exposed to Bio-Max MR film (Eastman Kodak Co., Rochester, N.Y.) at −70° C. for 8-12 h. The radioactivity incorporated into the ABCB1 band was quantified using the STORM 860 PhosphorImager system and ImageQuaNT (Molecular Dynamics, CA).

ABCB1 [3] = molecular target: T1, ABCB1; assay: Vi-sensitive ATPase assay of ABCB1 (Example 1); format: biochemical; conditions: ABCB1 membrane vesicles; read-out: concentration required for 50% stimulation of ATPase activity
Method: The Vi-sensitive ATPase activity of ABCB1 in membrane vesicles of High Five™ insect cells was measured as follows. The membrane vesicles ([…]) were incubated in ATPase assay buffer (50 mM MES [pH 6.8], 50 mM KCl, 5 mM sodium azide, 2 mM EGTA, 2 mM dithiothreitol, 1 mM ouabain, and 10 mM MgCl2) with or without 0.3 mM orthovanadate (freshly prepared) at 37° C. for 5 min, then incubated with different concentrations of drug at 37° C. for 3 min. The ATPase reaction was started by the addition of 5 mM ATP, and the total volume was 0.1 ml. After incubation at 37° C. for 20 min, the reactions were stopped by the addition of 0.1 ml of 5% SDS solution and vortexed and kept at room temperature. The liberated Pi was measured as described in Ambudkar et al., supra.

HEK/MRP1 (ABCC1) = assay: MTT cytotoxicity/reversal assay (Example 1); format: cell-based; conditions: +10 μM reversal agent
Method: The KB-C2 and KB-3-1 were kindly provided by Dr. Akiyama (Kagoshima University, Japan). […] Similarly, the HEK/MRP1 (ABCC1) and HEK/ABCB1 cells were generated by transfecting the HEK293 cells with either the MRP1 expression vector or the ABCB1 expression vector. All of the cell lines were grown in Dulbecco's modified Eagle's medium (DMEM) supplemented with 10% bovine serum, 100 units/ml penicillin, and […] streptomycin in a humidified incubator containing 5% CO2 at 37° C.
(§1) The MTT assay was used to assess cytotoxicity. The cultured cells were harvested with trypsin and resuspended in a final concentration of 4×10^3 cells/well for KB-3-1; 7.5×10^3 cells/well for KB-C2; and 8×10^3 for all of the other cell lines used in this study. Cells were seeded evenly in 96-well multiplates. […] After 68 h of incubation, 20 μl of the MTT solution (4 mg/ml) was added to each well, and the plate was further incubated for 4 h at 37° C., allowing viable cells to convert the yellow-colored MTT into dark-blue formazan crystals. Subsequently, the medium was discarded, and 100 μl of DMSO was added into each well to dissolve the formazan crystals, generating purple color. The absorbance was determined at 570 nm by an OPSYS Microplate Reader from DYNEX Technologies, Inc. (Chantilly, Va.). […] The degree of the reversal of multidrug resistance (MDR) was calculated by dividing the IC50 of an anticancer drug, e.g., an antineoplastic or chemotherapeutic drug (agent, compound), in a cell type in the absence of a reversal agent by the IC50 of the anticancer drug in the same cell type in the presence of the reversal agent. The IC50 values were calculated from survival curves using the Bliss method.

any cell lines tested = assay: MTT assay, vardenafil or tadalafil alone; format: cell-based; conditions: concentrations of up to 20 μM
Method: as §1

T1 sequence (P08183 whole entry): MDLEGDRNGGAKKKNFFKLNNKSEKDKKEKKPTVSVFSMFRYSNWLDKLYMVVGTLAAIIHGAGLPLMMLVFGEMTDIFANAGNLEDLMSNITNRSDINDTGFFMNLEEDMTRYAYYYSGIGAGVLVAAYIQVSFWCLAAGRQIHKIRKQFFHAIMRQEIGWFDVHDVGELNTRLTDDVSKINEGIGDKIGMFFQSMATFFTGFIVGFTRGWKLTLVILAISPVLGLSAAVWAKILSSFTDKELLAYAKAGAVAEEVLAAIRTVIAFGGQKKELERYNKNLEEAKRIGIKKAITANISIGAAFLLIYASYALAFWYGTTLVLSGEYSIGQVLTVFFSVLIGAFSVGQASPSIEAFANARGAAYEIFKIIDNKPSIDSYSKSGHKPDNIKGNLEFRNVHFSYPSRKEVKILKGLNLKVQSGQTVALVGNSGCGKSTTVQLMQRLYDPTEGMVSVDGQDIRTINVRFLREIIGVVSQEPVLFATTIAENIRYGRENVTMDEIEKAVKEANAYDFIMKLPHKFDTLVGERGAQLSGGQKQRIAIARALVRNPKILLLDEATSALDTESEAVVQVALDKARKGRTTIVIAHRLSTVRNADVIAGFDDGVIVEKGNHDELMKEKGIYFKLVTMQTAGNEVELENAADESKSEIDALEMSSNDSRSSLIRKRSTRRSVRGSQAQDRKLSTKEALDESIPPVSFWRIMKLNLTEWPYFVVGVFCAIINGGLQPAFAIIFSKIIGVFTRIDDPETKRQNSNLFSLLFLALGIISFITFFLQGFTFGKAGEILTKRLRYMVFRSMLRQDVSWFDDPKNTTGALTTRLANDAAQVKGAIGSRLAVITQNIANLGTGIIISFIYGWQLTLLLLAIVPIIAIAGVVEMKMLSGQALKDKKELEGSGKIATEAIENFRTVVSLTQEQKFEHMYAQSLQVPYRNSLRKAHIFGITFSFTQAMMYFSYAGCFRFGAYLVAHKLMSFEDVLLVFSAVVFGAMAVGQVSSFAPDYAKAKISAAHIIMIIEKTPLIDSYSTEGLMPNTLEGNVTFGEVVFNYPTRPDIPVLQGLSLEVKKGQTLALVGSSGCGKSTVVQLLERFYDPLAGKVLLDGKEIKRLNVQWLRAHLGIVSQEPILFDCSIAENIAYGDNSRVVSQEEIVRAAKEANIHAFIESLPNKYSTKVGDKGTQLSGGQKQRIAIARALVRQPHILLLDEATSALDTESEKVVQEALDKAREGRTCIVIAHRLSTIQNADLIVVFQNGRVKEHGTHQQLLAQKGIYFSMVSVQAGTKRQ

SMILES	protein level of ABCB1 (Western blot) [1]	expression of ABCB1 in the membrane (immunofluorescence) [1]	accumulated paclitaxel retained inside cells (KB-C2 cells (ABCB1); 10 μM) [%]	IC50 (ABCB1 [2]) [nM]	inhibition at 5 min, 10 µM (ABCB1 [2]; pH 6.8, probe [125I]-IAAP (7 nM), 10 μM, read-out: inhibition of [^125I]-IAAP photolabeling) [%]	EC50 (ABCB1 [3]) [nM]	fold reversal, vincristine (HEK/MRP1 (ABCC1))	growth inhibition by the PDE5 inhibitor alone (any cell lines tested)	accumulated paclitaxel effluxed (KB-C2 cells (ABCB1); absence of vardenafil) [%]
CCCc1nc(C)c2c(=O)[nH]c(-c3cc(S(=O)(=O)N4CCN(CC)CC4)ccc3OCC)nn12 [Vardenafil, vardenafil]	not significantly altered	neither vardenafil nor tadalafil altered the expression of ABCB1 in the membrane	75	690	90	2690 ± 720	(1.07)	neither vardenafil nor tadalafil inhibited the growth of any cell lines tested	–
CC(=O)O[C@H]1C(=O)[C@@]2(C)[C@H]([C@H](OC(=O)c3ccccc3)[C@]3(O)C[C@H](OC(=O)[C@H](O)[C@@H](NC(=O)c4ccccc4)c4ccccc4)C(C)=C1C3(C)C)[C@]1(OC(C)=O)CO[C@@H]1C[C@@H]2O [Paclitaxel, paclitaxel]	–	–	–	–	–	–	–	–	70
CN1CC(=O)N2[C@H](c3ccc4c(c3)OCO4)c3[nH]c4ccccc4c3C[C@@H]2C1=O [Tadalafil, tadalafil]	not significantly altered	neither vardenafil nor tadalafil altered the expression of ABCB1 in the membrane	–	> 50000	–	> 25000	(1.03)	neither vardenafil nor tadalafil inhibited the growth of any cell lines tested	–
